The target of data set [1] is human growth hormone secretagogue receptor (hGHS-R1a) (Homo sapiens, UniProt Q92847). As to the kind of experiment: Competitive radioligand binding assay (ghrelin receptor), standard method A.
Data set [2] addresses GHS-R1a receptor (human ghrelin receptor) (Homo sapiens, UniProt Q92847). The data set can be described thus: Aequorin functional assay (ghrelin receptor), standard method B. It is filed as cell-based. From the text:
B. Aequorin Functional Assay (Ghrelin Receptor)
See also U.S. patent application Ser. Nos. 11/149,512 and 11/149,731. (LePoul, E.; et al. J. Biomol. Screen. 2002, 7, 57-65; Bednarek, M. A.; et al. J. Med. Chem. 2000, 43, 4370-4376; Palucki, B. L.; et al. Bioorg. Med. Chem. Lett. 2001, 11, 1955-1957.) Functional activity at the gherlin receptor for representative compounds of the present invention is presented in the Examples.

A short description of data set [3]: Plasma protein binding, human plasma (equilibrium dialysis). It is filed as in vitro ADME. Conditions: test concentration 5 μg/mL. In outline: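 Human plasma incubated with test article at several concentrations for 60 min at 37° C. Bound and unbound fractions separated by equilibrium dialysis; unbound concentration quantified by LC-MS or LC-MS-MS.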
Data set [4] is described as follows: Plasma protein binding, rat plasma. It is filed as in vitro ADME. Conditions: test concentration 5 μg/mL.
The target of the next data set is T1, hGHS-R1a (Homo sapiens, UniProt Q92847).
T1 construct: expressed in transfected cells
The data set can be described thus: Activation-desensitization profile, Ca2+ flux in HEK293 cells stably expressing hGHS-R1a. Conditions: higher positive = less desensitization potential. In kind it is cell-based. As to the method:
M. Activation-Desensitization Profile
It is well-known that agonists of G-protein coupled receptors can induce desensitization or tachyphylaxis, thereby limiting the potential of agents acting at the receptor as therapeutics for chronic use.
• 1. […] Agonist-induced Ca^+2 fluxes were measured after loading with Ca^+2 indicator Fluo-4-AM. • 3. […] Results
Background: A change in cytosolic calcium serves as a functional read-out for many receptors and channels.

The subject of data set [5] is rat stomach fundus strips. As to the kind of experiment: tissue or blood. As to conditions: read-out: EC50 values for contractility.
Description: Fundus strips (approximately 0.4×1 cm) were cut from the stomach of adult male Wistar rats parallel to the circular muscle fibers. They were placed between two platinum ring electrodes, 1 cm apart (Radnoti, ADInstruments, USA) in 10 ml tissue baths containing Krebs solution bubbled with 5% CO2 in O2 and maintained at 37° C. Tissues were suspended under 1.5 g resting tension. Changes of tension were measured isometrically with force transducers and recorded with a PowerLab 8/30 data acquisition system (ADInstruments, USA). Tissues were allowed to equilibrate for 60 min during which time bath solutions were changed every 15 min.
EFS was achieved by applying 0.5 ms pulses, 5 Hz frequency, at a maximally effective voltage of 70 V. EFS was applied for 30 sec at 3 min intervals for a 30 min initial period. This initial period was separated by a 5 min interval with wash out of the bath solution. Then, a second period of stimulation was started. […] Responses to the agents were measured and expressed as % of the mean of three or four pre-drug responses to EFS. All compounds were dissolved at 1 mM in distilled water or MeOH, as stock solutions.
The next data set has as its system Caco-2 cell layer. The data set can be described thus: Caco-2 permeability. Conditions: for Papp A to B: Caco-2, apical to basolateral; for Papp A to B / Papp B to A: 10 μM, 60 min, 37° C.; for Papp B to A: Caco-2, basolateral to apical; for BtoA/AtoB: Caco-2 ratio of Papp B to A over A to B. (Passage across Caco-2 layers is used to estimate intestinal permeability.)

The mark [6] stands for this setting: binding activity at the human ghrelin receptor, standard method A.

Structures are written as SMILES. Where two headings read alike, the source gives them in different places.

The term Ki denotes the dissociation constant of the complex between target and ligand, obtained from inhibition or displacement. As usually defined, the EC50 is the midpoint of the concentration-response curve. For orientation: fraction unbound means the share of the substance not bound to proteins or other matrix. Read a high fraction unbound as weak binding.

human growth hormone secretagogue receptor (hGHS-R1a), sequence (Q92847 whole entry): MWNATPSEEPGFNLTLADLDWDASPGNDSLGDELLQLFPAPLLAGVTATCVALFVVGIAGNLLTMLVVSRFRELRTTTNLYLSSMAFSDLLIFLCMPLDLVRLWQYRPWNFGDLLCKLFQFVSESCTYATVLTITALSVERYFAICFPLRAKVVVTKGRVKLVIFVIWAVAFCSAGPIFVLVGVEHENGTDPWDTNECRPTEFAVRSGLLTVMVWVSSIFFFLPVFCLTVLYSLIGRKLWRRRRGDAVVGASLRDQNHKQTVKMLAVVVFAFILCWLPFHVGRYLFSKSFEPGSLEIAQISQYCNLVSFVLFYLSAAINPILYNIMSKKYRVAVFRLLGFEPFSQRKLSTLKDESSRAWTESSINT
T1 sequence (Q92847 whole entry): as above
GHS-R1a receptor (human ghrelin receptor), sequence (Q92847 whole entry): as above
Description for Caco-2 cell layer: L. Determination of Caco-2 Permeability
Fully differentiated cell monolayers can be used to assess the membrane transport properties of novel compounds.
Permeability across the Caco-2 cell layer was determined by growing the cells on a membrane placed between two (donor and acceptor) chambers. […] Permeability in this direction represents intestinal absorption. Permeability may also be determined from the basolateral to the apical side of the Caco-2 cell. A higher apical to basolateral Papp, compared to the basolateral to apical Papp, is indicative of carrier-mediated transport.
Permeability (10 μM) for compounds of the invention in the apical to basolateral and basolateral to apical direction were tested in duplicate. Samples will be collected from the donor and acceptor chambers at the beginning (0 min) and following 60 min of incubation at 37° C. and stored frozen at −70° C. until bioanalysis. Samples for each test compound generated from the Caco-2 permeability assay were further analyzed by LC-MS-MS. The permeability of [^3H]-mannitol and [^3H]-propranolol were determined in parallel as controls.
The permeability coefficient (Papp) of each compound and radiolabeled standard was determined using the following equation:
where dQ/dT represents the permeability rate, Ci denotes the initial concentration in the donor compartment, and A represents the surface area of the filter. Ci is determined from the mean concentration of duplicate samples taken prior to addition to the donor compartment. Permeability rates were calculated by plotting the cumulative amount of compound measured in the acceptor compartment over time and determining the slope of the line by linear regression analysis. The duplicate and mean apical to basolateral and basolateral to apical Papp's were reported for each compound and standard.

In data set [1] (setting [6]), `CC1NC(C2CC2)C(=O)N(C)C(C)C(=O)NC(Cc2ccc(O)cc2)C(=O)NCCCc2ccccc2OC1C` (stereo not drawn) [Compound 820] yielded an inhibitory constant (Ki) not above 100 nM.

In data set [1] (setting [6]), `CC(C)CC1NC(=O)C(C)N(C)C(=O)C(C2CCCCC2)NCC(C)OC2CCCCC2CCCNC1=O` (mixture of isomers) [Compound 828] yielded a Ki not above 1 nM.

In the case of `CC(C)C[C@H]1NC(=O)[C@@H](C)N(C)C(=O)[C@H](C2CC2)NC[C@@H](C)Oc2ccccc2CC[C@H](C)NC1=O` [Compound 807], the Ki in data set [1] is not above 10 nM. For the same compound, the EC50 was not above 50 nM in data set [2] and 150 nM in data set [5]. The results for the fraction unbound at 60 min, 5 μg/mL in data set [3] and in data set [4] were 0.007 and 0.16, respectively. The “Δ(activity-desensitization) (pEC50 − pDC50)” value at hGHS-R1a turned out to be 3.08.

Regarding `CC(C)C[C@H]1NC(=O)[C@@H](C)N(C)C(=O)[C@H](C2CC2)NCCOc2cc(F)ccc2CC[C@H](C)NC1=O` [Compound 822], the Ki in data set [1] (setting [6]) is not above 100 nM.

Consider `C[C@@H]1C(=O)N[C@H](Cc2ccc(O)cc2)C(=O)NCCCc2cccc3c2O[C@H](CC3)CN[C@@H](C2CC2)C(=O)N1C` [Compound 803], for which the Ki in data set [1] (setting [6]) was not above 100 nM. Moreover, in the data set with Caco-2 cell layer, the “Papp A to B” value was 12.1 cm/sec × 10^−6, the “Papp B to A” value amounted to 67.3 cm/sec × 10^−6 and the BtoA/AtoB came to 5.59.

Regarding `CC(C)C[C@H]1NC(=O)[C@@H](C)N(C)C(=O)[C@H](C2CC2)NCCOc2cc(F)ccc2CCCNC1=O` [Compound 810], in data set [1] (setting [6]), the Ki is not above 100 nM.

Consider `CC1CNC(C2CC2)C(=O)N(C)C(C)C(=O)NC(Cc2ccc(O)cc2)C(=O)NCCCC2CCCCC2O1` (mixture of isomers) [Compound 826], for which the inhibitory constant (Ki) in data set [1] (setting [6]) is not above 100 nM. Also, the “Δ(activity-desensitization) (pEC50 − pDC50)” value on hGHS-R1a turned out to be 1.90. Moreover, in the data set with Caco-2 cell layer, the “Papp A to B” value is 11.2 cm/sec × 10^−6, the “Papp B to A” value turned out to be 46.9 cm/sec × 10^−6 and the BtoA/AtoB is given as 4.18.

`CC(C)CC1NC(=O)C(C)N(C)C(=O)C(C2CC2)NCC(C)OC2CCCCC2CCCNC1=O` (mixture of isomers) [Compound 825] gave an inhibition constant Ki in data set [1] (setting [6]) not above 10 nM. Also, in the data set with Caco-2 cell layer, the “Papp A to B” value was 113 cm/sec × 10^−6, the “Papp B to A” value is on record as 123 cm/sec × 10^−6 and the BtoA/AtoB came to 1.08.

Regarding `C[C@@H]1C(=O)N[C@H](Cc2ccc(O)cc2)C(=O)NCCCc2ccc(F)cc2OCCN[C@@H](C2CC2)C(=O)N1C` [Compound 809], in data set [1] (setting [6]), the Ki was not above 100 nM.

The values above are taken from patent publication US10258602B2 (Ocera Therapeutics, Inc., priority 2007, dated 2019).
